These results are taken from the supplement of paper PMC10307832.

Assay in all cases: relative viability (nuclei count vs DMSO), 5 days (fraction); higher = more cells survive
Compound in the test “Bleomycin + Vorinostat”: CC1=C(N=C(N=C1N)[C@H](CC(=O)N)NC[C@@H](C(=O)N)N)C(=O)N[C@@H]([C@H](C2=CN=CN2)OC3C(C(C(C(O3)CO)O)O)OC4C(C(C(C(O4)CO)O)OC(=O)N)O)C(=O)N[C@H](C)[C@H]([C@H](C)C(=O)N[C@@H]([C@@H](C)O)C(=O)NCCC5=NC(=CS5)C6=NC(=CS6)C(=O)NCCC[S+](C)C)O [Bleomycin] + O=C(CCCCCCC(=O)Nc1ccccc1)NO [Vorinostat] (partner 1 µM)
The settings on record: main component drawn. An outline of the steps: (§1)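 Each reported value is a median over duplicate plates. It expresses relative viability: treated-well nuclei count divided by vehicle-well nuclei count. Lung cancer cell lines in 1536-well plates were dosed by pin tool a day after seeding, alone with one drug or with a fixed anchor-drug dose plus five library-drug doses (not always all listed) in √10 steps, and nuclei were counted after 5 days.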

Compound in the test “Etoposide + Dasatinib”: COc1cc([C@@H]2c3cc4c(cc3[C@@H](O[C@@H]3O[C@@H]5CO[C@@H](C)O[C@H]5[C@H](O)[C@H]3O)[C@H]3COC(=O)[C@H]23)OCO4)cc(OC)c1O [Etoposide] + Cc1nc(Nc2ncc(C(=O)Nc3c(C)cccc3Cl)s2)cc(N2CCN(CCO)CC2)n1 [Dasatinib] (partner 0.075 µM)
A digest of the protocol:
as §1

Compound in the test “Etoposide + Decitabine”: COc1cc([C@@H]2c3cc4c(cc3[C@@H](O[C@@H]3O[C@@H]5CO[C@@H](C)O[C@H]5[C@H](O)[C@H]3O)[C@H]3COC(=O)[C@H]23)OCO4)cc(OC)c1O [Etoposide] + Nc1ncn([C@H]2C[C@H](O)[C@@H](CO)O2)c(=O)n1 [Decitabine] (partner 2 µM)
A digest of the protocol:
as §1

Compound in the test “Etoposide + Vorinostat”: COc1cc([C@@H]2c3cc4c(cc3[C@@H](O[C@@H]3O[C@@H]5CO[C@@H](C)O[C@H]5[C@H](O)[C@H]3O)[C@H]3COC(=O)[C@H]23)OCO4)cc(OC)c1O [Etoposide] + O=C(CCCCCCC(=O)Nc1ccccc1)NO [Vorinostat] (partner 1 µM)
A digest of the protocol:
as §1

On to ChaGo-K-1, for which the relative viability with Bleomycin + Vorinostat (first compound 0.01 µM) came to 0.512; in the test with Bleomycin + Vorinostat (first compound 0.03162 µM), 0.526; with Bleomycin + Vorinostat (first compound 0.1 µM) it was 0.483; with Bleomycin + Vorinostat (first compound 0.3162 µM), 0.303; with Bleomycin + Vorinostat (first compound 1 µM) it was 0.279; with Etoposide + Dasatinib (first compound 0.01 µM) it was 0.479. Moreover, the relative viability with Etoposide + Dasatinib (first compound 0.03162 µM) was determined as 0.59; with Etoposide + Dasatinib (first compound 0.1 µM), 0.51; with Etoposide + Dasatinib (first compound 0.3162 µM), 0.441; with Etoposide + Dasatinib (first compound 1 µM) it was 0.146; with Etoposide + Decitabine (first compound 0.01 µM), 0.448; in the test with Etoposide + Decitabine (first compound 0.03162 µM), 0.546. Besides, the relative viability with Etoposide + Decitabine (first compound 0.1 µM) came out at 0.397; with Etoposide + Decitabine (first compound 0.3162 µM), 0.291; with Etoposide + Decitabine (first compound 1 µM), 0.229; in the test with Etoposide + Vorinostat (first compound 0.01 µM) it was 0.756; in the test with Etoposide + Vorinostat (first compound 0.03162 µM) it was 0.736; with Etoposide + Vorinostat (first compound 0.1 µM), 0.413. Also, the relative viability was 0.353 in the test with Etoposide + Vorinostat (first compound 0.3162 µM) and 0.197 with Etoposide + Vorinostat (first compound 1 µM).

In the case of NCI-H23, the relative viability turned out to be 0.264 with Bleomycin + Vorinostat (first compound 0.01 µM); 0.316 with Bleomycin + Vorinostat (first compound 0.03162 µM); 0.219 with Bleomycin + Vorinostat (first compound 0.1 µM); 0.123 with Bleomycin + Vorinostat (first compound 0.3162 µM); 0.127 with Bleomycin + Vorinostat (first compound 1 µM); 0.805 with Etoposide + Dasatinib (first compound 0.01 µM). Moreover, the relative viability with Etoposide + Dasatinib (first compound 0.03162 µM) was 0.821; with Etoposide + Dasatinib (first compound 0.1 µM), 0.504; with Etoposide + Dasatinib (first compound 0.3162 µM) it was 0.384; with Etoposide + Dasatinib (first compound 1 µM), 0.185; in the test with Etoposide + Decitabine (first compound 0.01 µM), 0.333; with Etoposide + Decitabine (first compound 0.03162 µM), 0.317. The relative viability in the test with Etoposide + Decitabine (first compound 0.1 µM) is 0.291; in the test with Etoposide + Decitabine (first compound 0.3162 µM), 0.235; with Etoposide + Decitabine (first compound 1 µM), 0.242; with Etoposide + Vorinostat (first compound 0.01 µM), 0.633; with Etoposide + Vorinostat (first compound 0.03162 µM), 0.604; with Etoposide + Vorinostat (first compound 0.1 µM) it was 0.316. Moreover, the relative viability with Etoposide + Vorinostat (first compound 0.3162 µM) was determined as 0.262; with Etoposide + Vorinostat (first compound 1 µM) it was 0.145.

With PC-3 [JPC-3], the relative viability in the test with Bleomycin + Vorinostat (first compound 0.01 µM) was 0.788; with Bleomycin + Vorinostat (first compound 0.03162 µM), 0.928; with Bleomycin + Vorinostat (first compound 0.1 µM), 0.737; in the test with Bleomycin + Vorinostat (first compound 0.3162 µM), 0.46; with Bleomycin + Vorinostat (first compound 1 µM), 0.417; with Etoposide + Dasatinib (first compound 0.01 µM) it was 0.915. For the same cell line, the relative viability with Etoposide + Dasatinib (first compound 0.03162 µM) is 0.915; with Etoposide + Dasatinib (first compound 0.1 µM), 0.871; with Etoposide + Dasatinib (first compound 0.3162 µM) it was 0.961; in the test with Etoposide + Dasatinib (first compound 1 µM), 0.927; in the test with Etoposide + Decitabine (first compound 0.01 µM), 0.813; with Etoposide + Decitabine (first compound 0.03162 µM), 0.921. For the same cell line, the relative viability was 0.836 with Etoposide + Decitabine (first compound 0.1 µM); 0.737 with Etoposide + Decitabine (first compound 0.3162 µM); 0.692 with Etoposide + Decitabine (first compound 1 µM); 0.796 with Etoposide + Vorinostat (first compound 0.01 µM); 1.09 with Etoposide + Vorinostat (first compound 0.03162 µM); 0.69 with Etoposide + Vorinostat (first compound 0.1 µM). Moreover, the relative viability was 0.694 with Etoposide + Vorinostat (first compound 0.3162 µM) and 0.518 in the test with Etoposide + Vorinostat (first compound 1 µM).

In the case of NCI-H1437, the relative viability with Bleomycin + Vorinostat (first compound 0.01 µM) was 0.712; with Bleomycin + Vorinostat (first compound 0.03162 µM), 0.758; with Bleomycin + Vorinostat (first compound 0.1 µM), 0.733; with Bleomycin + Vorinostat (first compound 0.3162 µM) it was 0.458; with Bleomycin + Vorinostat (first compound 1 µM), 0.413; in the test with Etoposide + Dasatinib (first compound 0.01 µM), 0.585. For the same cell line, the relative viability with Etoposide + Dasatinib (first compound 0.03162 µM) is 0.443; with Etoposide + Dasatinib (first compound 0.1 µM), 0.283; in the test with Etoposide + Dasatinib (first compound 0.3162 µM) it was 0.29; with Etoposide + Dasatinib (first compound 1 µM), 0.165; in the test with Etoposide + Decitabine (first compound 0.01 µM), 0.537; with Etoposide + Decitabine (first compound 0.03162 µM), 0.632. The relative viability came to 0.568 with Etoposide + Decitabine (first compound 0.1 µM); 0.441 with Etoposide + Decitabine (first compound 0.3162 µM); 0.332 in the test with Etoposide + Decitabine (first compound 1 µM); 0.871 with Etoposide + Vorinostat (first compound 0.01 µM); 0.877 with Etoposide + Vorinostat (first compound 0.03162 µM); 0.804 with Etoposide + Vorinostat (first compound 0.1 µM). The relative viability was 0.435 with Etoposide + Vorinostat (first compound 0.3162 µM) and 0.396 with Etoposide + Vorinostat (first compound 1 µM).
